Target: Wild-type IDH1 (Homo sapiens (Human), UniProt O75874)
Experiment: Biochemical assay for wild-type IDH1 enzyme (isocitrate to αKG)
Conditions: mean ± SEM
Method: IDH1 and IDH2 enzymes catalyze the conversion of isocitrate to αKG. Wild-type IDH1 (National Center for Biotechnology Information, Accession: NP_001269316.1) and IDH2 (National Center for Biotechnology Information, Accession: EAX02082.1) proteins containing N-terminal His-tag are expressed in E. coli and purified using nickel affinity chromatography by methods commonly used and well known to those skilled in the art. The enzyme assays are carried out in V-bottom 96 well polypropylene plates containing 100 mM Tris-HCl buffer at pH 7.5, 1 mM DTT, 0.005% TRITON™ X-100, 120 mM NaCl. For the IDH1 wild-type assay isocitrate, NADP^+ and MnCl2 are included at the concentrations of 85 μM, 50 μM and 20 μM respectively. For the IDH2 wild-type assay isocitrate, NADP^+ and MnCl2 are included at the concentrations of 30 μM, 50 μM and 10 μM respectively. Inhibitors dissolved in a DMSO stock solution are diluted in the reaction mixture at a final DMSO concentration of 4%. The enzyme assay is terminated (quenched) by adding ACN (50:50) containing d (d6-αKG) as an internal standard for mass spectrometry analysis. Ten microliters of reaction mixture is combined with 100 μL of water, 50 μL of 1 M O-benzylhydroxylamine in pyridine buffer (8.6% pyridine, pH 5), and 50 μL of 1 M EDC in pyridine buffer. Following derivatization at room temperature for one hour, samples are extracted with EtOAc (600 μL). […] of the upper layer is removed, dried under heated nitrogen, and reconstituted with MeOH/water (1:1) (100 μL). Ten μL of derivatized sample is injected onto an LC-MS system consisting of a Shimadzu Prominence 20A HPLC system and a Thermo Quantum Ultra™ triple quadrupole mass spectrometer. Analytes are separated on a Waters XBridge™ C18 column (2.1×50 mm, […]) with a flow rate of 0.6 mL/minute. Mobile phase A is 0.1% formic acid in water and mobile phase B is MeOH. The αKG signal detected is transformed into analyte concentration using a calibration curve generated using known αKG concentrations. […] IC50 values are obtained from the individual % inhibition values at different compound concentrations using a 4-parameter equation. These calculations are carried out using Activity Base (IDBS) or Screener (Genedata) data analysis programs.

Chain of Wild-type IDH1 (O75874 whole entry): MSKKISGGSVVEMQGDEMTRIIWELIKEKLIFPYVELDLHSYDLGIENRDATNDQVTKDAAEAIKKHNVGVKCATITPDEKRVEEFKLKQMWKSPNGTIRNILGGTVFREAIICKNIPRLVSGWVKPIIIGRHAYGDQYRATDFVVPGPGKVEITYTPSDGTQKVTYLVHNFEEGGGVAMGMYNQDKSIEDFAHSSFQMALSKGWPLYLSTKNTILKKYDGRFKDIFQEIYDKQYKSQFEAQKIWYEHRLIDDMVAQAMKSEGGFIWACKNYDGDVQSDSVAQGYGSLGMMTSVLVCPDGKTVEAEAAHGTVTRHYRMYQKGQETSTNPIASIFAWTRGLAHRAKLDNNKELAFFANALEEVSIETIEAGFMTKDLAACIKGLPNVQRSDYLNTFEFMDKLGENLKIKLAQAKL

IC50 | SMILES
1.56 ± 0.2 µM | C=CC(=O)N1CCN(Cc2ccc([C@H](C)Nc3nccc(N4C(=O)OC[C@@H]4C(C)C)n3)cc2)CC1 [Example 1, (S)-3-(2-(((S)-1-(4-((4-Acryloylpiperazin-1-yl)methyl)phenyl)ethyl)amino)pyrimidin-4-yl)-4-isopropyloxazolidin-2-one]
3.15 ± 0.07 µM | C=CC(=O)N1CCN(Cc2ccc([C@H](C)Nc3nccc(N4C(=O)OC[C@@H]4CC)n3)cc2)CC1 [Example 2, (S)-3-(2-(((S)-1-(4-((4-acryloylpiperazin-1-yl)methyl)phenyl)ethyl)amino)pyrimidin-4-yl)-4-ethyloxazolidin-2-one]
15.5 ± 0.5 µM | C=CC(=O)N1CCN(Cc2ccc([C@H](C)Nc3nccc(N4C(=O)OC[C@@H]4C)n3)cc2)CC1 [Example 3, (S)-3-(2-(((S)-1-(4-((4-acryloylpiperazin-1-yl)methyl)phenyl)ethyl)amino)pyrimidin-4-yl)-4-methyloxazolidin-2-one]
6.76 ± 1.35 µM | C=CC(=O)N1CCN(Cc2ccc([C@H](C)Nc3nccc(N4C(=O)OCC4(C)C)n3)cc2)CC1 [Example 4, (S)-3-(2-((1-(4-((4-acryloylpiperazin-1-yl)methyl)phenyl)ethyl)amino)pyrimidin-4-yl)-4,4-dimethyloxazolidin-2-one]
2.46 ± 0.3 µM | C=CC(=O)N1CCN(Cc2ccc([C@H](C)Nc3ncc(F)c(N4C(=O)OC[C@@H]4C(C)C)n3)cc2)CC1 [Example 5, (S)-3-(2-(((S)-1-(4-((4-acryloylpiperazin-1-yl)methyl)phenyl)ethyl)amino)-5-fluoropyrimidin-4-yl)-4-isopropyloxazolidin-2-one]
2.2 µM | C=CC(=O)N1CCN(Cc2ccc([C@H](C)Nc3nc(F)cc(N4C(=O)OCC4(C)C)n3)cc2)CC1 [Example 11, (S)-3-(2-((1-(4-((4-acryloylpiperazin-1-yl)methyl)phenyl)ethyl)amino)-6-fluoropyrimidin-4-yl)-4,4-dimethyloxazolidin-2-one]
0.145 µM | C=CC(=O)N1CCN(C(CC2CC2)c2ccc([C@H](C)Nc3nccc(N4C(=O)OC[C@@H]4[C@@H](C)O)n3)cc2)CC1 (stereo partly shown) [Example 26]

Reference: patent publication US10696665B2, “Mutant IDH1 inhibitors” (Eli Lilly and Company, priority 2016, dated 2020)
